This passage reports solubility results from patent publication US20220096389A1, “PHARMACEUTICAL COMPOSITIONS OF AMORPHOUS SOLID DISPERSIONS AND METHODS OF PREPARATION THEREOF” (Shenzhen Pharmacin Co., Ltd., priority 2020, published 2022).

The conditions of data set [1]: cited from earlier work.
The nature of data set [2]: Kinetic solubility profiles of palbociclib ASD powders. It counts as physicochemical. The following applies: aqueous buffer, thermodynamic from solid; pH 6.5 phosphate buffer, 37 C.

Molecules are shown by their SMILES. Where two headings read alike, the source gives them in different places.

On to `CC(=O)c1c(C)c2cnc(Nc3ccc(N4CCNCC4)cn3)nc2n(C2CCCC2)c1=O` [Palbociclib, 6-acetyl-8-cyclopentyl-5-methyl-2-[(5-piperazin-1-ylpyridin-2-yl)amino]pyrido[2,3-d]pyrimidin-7-one], for which the solubility entry is “high” in data set [1] (pH value below 4), “less than 0.02 mg/ml” in data set [1] (pH value higher than 4) and < 10 µg/mL in data set [2].
